Experimental data as given in PMC7570966 (Molecules, 2020).
Like-named read-outs stand apart in the source and are kept apart here.

Legend:
β-secretase (BACE-1) = target: T1, β-secretase (BACE-1) (Homo sapiens, UniProt P56817); assay: biochemical
T1 construct: purchased Sigma–Aldrich
Source text: A fluorescence β-Secretase (BACE-1) Activity Detection Kit was purchased from Sigma–Aldrich and used to determine the effect of the synthesized flavone derivatives on β-secretase activity. […] The enzyme solution was reacted with the substrate (7-methoxycumarin-4-acetyl-(Asn670, Lue671)-amyloid β/A4 precursor protein 770 fragment 667–676-(2,4-dinitrophenyl))Lys-Arg-Arg amide trifluoroacetate salt and sulfated polysaccharide samples in a fluorescence assay buffer in different wells. Baseline readings were measure immediately on an F-7000 fluorescence spectrophotometer (Hitachi, Tokyo, Japan; excitation: 320 nm; emission: 405 nm) and repeated after 2 h incubation at 37 °C.

[1] = target: T2, acetylcholinesterase (AChE) (Electrophorus electricus, UniProt O42275); assay: biochemical; conditions: Ellman's method, pH 8, triplicate
T2 construct: purchased Sigma–Aldrich (St. Louis, MO, USA)
Procedure: AChE inhibitory activities of the synthesized flavone derivatives were determined by Ellman’s method [45]. […] The assay was performed as described earlier [46] in 96-well microtiter plates using the EMR-500 ELISA system (Labomed, Los Angeles, CA, USA). Each well of the plate contained a mixture of sodium phosphate buffer pH 8, sample (studied compounds or reference), acetylcholinesterase, ATCI, and 5,5′-dithio-bisnitrobenzoic acid (DTNB). The absorbance was recorded at 405 nm. All samples were assayed in triplicate.

[2] = fluorescence kit, 2 h incubation at 37 °C, read-out: BACE-1 IC50
[3] = observed, -logIC50, read-out: BACE-1 Obs. pIC50 (converted)

T1 sequence (P56817 46-501): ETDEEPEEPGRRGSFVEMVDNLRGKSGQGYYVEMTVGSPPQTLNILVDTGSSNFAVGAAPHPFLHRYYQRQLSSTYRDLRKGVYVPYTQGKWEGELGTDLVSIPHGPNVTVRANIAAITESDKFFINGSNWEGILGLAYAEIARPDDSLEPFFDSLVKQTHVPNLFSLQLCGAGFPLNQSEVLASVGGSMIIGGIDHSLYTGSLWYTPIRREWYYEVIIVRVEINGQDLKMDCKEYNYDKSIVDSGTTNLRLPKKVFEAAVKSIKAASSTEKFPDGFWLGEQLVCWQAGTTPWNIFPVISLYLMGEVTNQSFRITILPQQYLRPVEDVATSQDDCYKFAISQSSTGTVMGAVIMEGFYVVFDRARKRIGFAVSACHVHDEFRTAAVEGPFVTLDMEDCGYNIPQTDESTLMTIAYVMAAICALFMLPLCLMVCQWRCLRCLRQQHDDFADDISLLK
T2 sequence (O42275 24-633): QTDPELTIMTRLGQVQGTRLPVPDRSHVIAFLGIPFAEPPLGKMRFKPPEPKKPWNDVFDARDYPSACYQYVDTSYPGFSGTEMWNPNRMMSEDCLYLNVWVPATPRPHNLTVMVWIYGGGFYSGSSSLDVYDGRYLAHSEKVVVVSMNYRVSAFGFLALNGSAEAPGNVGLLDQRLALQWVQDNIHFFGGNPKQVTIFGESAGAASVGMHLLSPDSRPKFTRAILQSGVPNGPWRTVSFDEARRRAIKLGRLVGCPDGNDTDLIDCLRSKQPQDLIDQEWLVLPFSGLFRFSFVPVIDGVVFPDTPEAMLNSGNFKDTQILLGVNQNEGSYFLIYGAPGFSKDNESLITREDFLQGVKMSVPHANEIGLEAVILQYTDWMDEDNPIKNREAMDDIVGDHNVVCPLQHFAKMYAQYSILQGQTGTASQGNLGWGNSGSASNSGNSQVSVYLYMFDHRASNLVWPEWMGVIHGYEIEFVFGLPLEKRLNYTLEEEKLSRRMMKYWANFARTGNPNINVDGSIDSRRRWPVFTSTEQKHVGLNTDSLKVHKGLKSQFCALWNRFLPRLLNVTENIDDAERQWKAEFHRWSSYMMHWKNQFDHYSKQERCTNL

| Compound | IC50 (β-secretase (BACE-1); [2]) [µM] | IC50 (β-secretase (BACE-1); [3]) [µM] | IC50 [1] [µM] | IC50 (β-secretase (BACE-1); BACE-1 IC50, fluorescence kit, 2 h incubation at 37 °C) [µM] | IC50 (β-secretase (BACE-1); BACE-1 Obs. pIC50, observed, -logIC50) [µM] |
| --- | --- | --- | --- | --- | --- |
| CC(=O)Oc1cc2oc(-c3ccccc3)cc(=O)c2c(OC(C)=O)c1OC(C)=O [Compound B7, 5,6,7-Triacetoxyflavone] | 31.6 | 31.6 | 51.3 | – | – |
| C=CCOc1cc2oc(-c3ccccc3)cc(=O)c2c(O)c1OCC=C [Compound B4, 6,7-Diallyloxy-5-hydroxyflavone] | 70.8 | 70.8 | 51.8 | – | – |
| O=c1cc(-c2ccccc2)oc2cc(O)c(O)c(O)c12 [Compound B1, Baicalein] | – | – | 37.1 | – | – |
| COc1cc(O)c2c(=O)cc(-c3ccc(OC)c(OC)c3)oc2c1 [Compound D2, 5-Hydroxy-3’,4’,7-trimethoxyflavone] | 2.14 | 2.14 | 87.1 | – | – |
| CCOc1cc(O)c2c(=O)cc(-c3ccc(OC)c(OCC)c3)oc2c1 [Compound D3, 3’,7-Diethoxy-5-hydroxy-4’-methoxyflavone] | 3.16 | 3.16 | 129 | – | – |
| CCOc1cc(OCC)c2c(=O)cc(-c3ccc(OC)c(OCC)c3)oc2c1 [Compound D6, 3′,5,7-Triethoxy-4′-methoxyflavone] | 1.58 | 1.58 | 75.9 | – | – |
| CCOc1cc2oc(-c3ccccc3)cc(=O)c2c(O)c1OCC [Compound B3, 6,7-Diethoxy-5-hydroxyflavone] | 3.98 | 3.98 | 30 | – | – |
| O=c1cc(-c2ccccc2)oc2cc(OCc3ccccc3)c(OCc3ccccc3)c(OCc3ccccc3)c12 [Compound B6, 5,6,7-Tribenzyloxyflavone] | 12.6 | 12.6 | 80.3 | – | – |
| COc1cc(OC)c2c(=O)cc(-c3ccc(OC)c(OC)c3)oc2c1 [Compound D5, 3’,4’,5,7-Tetramethoxyflavone] | – | – | 73.8 | 1.66 | 1.66 |
| COc1ccc(-c2cc(=O)c3c(O)cc(OC(=O)c4ccccc4)cc3o2)cc1OC(=O)c1ccccc1 [Compound D7, 3’,7-Dibenzoyloxy-5-hydroxy-4’-methoxyflavone] | 2.86 | 2.88 | 340 | – | – |
| C=CCOc1cc(O)c2c(=O)cc(-c3ccc(OC)c(OCC=C)c3)oc2c1 [Compound D4, 3’,7-Diallyloxy-5-hydroxy-4’-methoxyflavone] | 3.6 | 3.63 | 151 | – | – |
| CCC(=O)Oc1cc2oc(-c3ccccc3)cc(=O)c2c(OC(=O)CC)c1OC(=O)CC [Compound B8, 5,6,7-Tripropionoxyflavone] | 22.4 | 22.4 | 66.2 | – | – |
| COc1cc2oc(-c3ccccc3)cc(=O)c2c(O)c1OC [Compound B2, 5-Hydroxy-6,7-dimethoxyflavone] | 43.6 | 43.7 | 25.5 | – | – |
| C=CCOc1cc2oc(-c3ccccc3)cc(=O)c2c(OCC=C)c1OCC=C [Compound B5, 5,6,7-Triallyloxyflavone] | 17 | 17 | 191 | – | – |
